Data reported in PubChem BioAssay (NCI).
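Grown in 96-well plates, cells were treated for 48 hours with each compound at five concentrations. Insufficient inhibition: endpoint recorded as highest concentration tested. TGI: total growth inhibition.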

Tests used:
Assay in all cases: growth of human tumour cells (NCI), 48 h
[1] = test system: NCI-H226 lung
[2] = test system: M14 melanoma
[3] = test system: ACHN renal
[4] = test system: EKVX NSCLC
[5] = test system: MALME-3M melanoma
[6] = test system: NCI-H23 lung
[7] = test system: COLO 205 colon
[8] = test system: OVCAR-4 ovarian
[9] = test system: XF 498 CNS
[10] = test system: KM12 colon
[11] = test system: SK-MEL-28 melanoma
[12] = test system: A549 NSCLC
[13] = test system: HCT-116 colon
[14] = test system: SF-539 CNS
[15] = test system: NCI-H460 lung
[16] = test system: HOP-62 NSCLC
[17] = test system: HCC-2998 colon
[18] = test system: K-562 leukemia
[19] = test system: OVCAR-5 ovarian
[20] = test system: HL-60(TB) leukemia
[21] = test system: SN12C renal
[22] = test system: IGROV1 ovarian
[23] = test system: A498 renal
[24] = test system: SK-MEL-2 melanoma
[25] = test system: SNB-19 CNS
[26] = test system: CCRF-CEM leukemia
[27] = test system: SF-268 CNS
[28] = test system: UO-31 renal
[29] = test system: RPMI-8226 leukemia
[30] = test system: OVCAR-8 ovarian
[31] = test system: OVCAR-3 ovarian
[32] = test system: UACC-62 melanoma
[33] = test system: SK-MEL-5 melanoma
[34] = test system: U251 CNS
[35] = test system: DLD-1 colon
[36] = test system: NCI-H522 lung
[37] = test system: KM20L2 colon
[38] = test system: SNB-75 CNS
[39] = test system: MOLT-4 leukemia
[40] = test system: HT29 colon
[41] = test system: SF-295 CNS
[42] = test system: CAKI-1 renal
[43] = test system: HOP-92 NSCLC
[44] = test system: TK-10 renal
[45] = test system: LOX IMVI melanoma
[46] = test system: DMS 114 small cell lung
[47] = test system: SK-OV-3 ovarian
[48] = test system: DMS 273 small cell lung
[49] = test system: RXF 393 renal
[50] = test system: UACC-257 melanoma
[51] = test system: 786-0 renal
[52] = test system: HCT-15 colon
[53] = test system: SW-620 colon
[54] = test system: SNB-78 CNS
[55] = test system: M19-MEL melanoma
[56] = test system: LXFL 529 NSCLC
[57] = test system: HOP-18 NSCLC
[58] = test system: SR leukemia

Compound `COC(=O)/C(=N\NC(=O)c1ccccc1O)C(C#N)c1ccccc1` (centres undefined) has a TGI [1] of 46.1 µM, a TGI [2] greater than 50 µM and a TGI [3] greater than 50 µM. It also gave a TGI [4] greater than 48.4 µM, a TGI [5] greater than 50 µM and a TGI [6] greater than 40.7 µM. It also gave a TGI [7] greater than 50 µM, a TGI [8] greater than 50 µM and a TGI [9] greater than 50 µM. For the same compound, the TGI [10] was greater than 50 µM, the TGI [11] was greater than 50 µM and the TGI [12] was greater than 50 µM. For the same compound, the TGI [13] was greater than 50 µM, the TGI [14] was greater than 43.3 µM and the TGI [15] was greater than 50 µM. It also gave a TGI [16] greater than 50 µM, a TGI [17] greater than 50 µM and a TGI [18] greater than 50 µM. For the same compound, the TGI [19] was greater than 50 µM, the TGI [20] was greater than 50 µM and the TGI [21] was greater than 50 µM. The TGI [22] was greater than 50 µM, the TGI [23] was greater than 48.4 µM and the TGI [24] was greater than 50 µM. It also gave a TGI [25] greater than 50 µM, a TGI [26] greater than 50 µM and a TGI [27] greater than 50 µM. It also gave a TGI [28] of 37.6 µM, a TGI [29] greater than 50 µM and a TGI [30] greater than 50 µM. For the same compound, the TGI [31] was greater than 40.6 µM, the TGI [32] was greater than 32.8 µM and the TGI [33] was greater than 50 µM. It also gave a TGI [34] greater than 50 µM, a TGI [35] greater than 50 µM and a TGI [36] greater than 50 µM. It also gave a TGI [37] greater than 50 µM, a TGI [38] greater than 50 µM and a TGI [39] greater than 50 µM. The TGI [40] was greater than 50 µM, the TGI [41] was greater than 50 µM and the TGI [42] was greater than 50 µM. It also gave a TGI [43] greater than 50 µM, a TGI [44] greater than 50 µM and a TGI [45] greater than 50 µM. For the same compound, the TGI [46] was greater than 50 µM, the TGI [47] was greater than 50 µM and the TGI [48] was greater than 50 µM. For the same compound, the TGI [49] was 34.1 µM, the TGI [50] was greater than 50 µM and the TGI [51] was greater than 50 µM. The TGI [52] was greater than 50 µM, the TGI [53] was greater than 50 µM and the TGI [54] was greater than 50 µM. The TGI [55] was greater than 50 µM and the TGI [56] was greater than 50 µM.
Work on `CCCCCCCCCCCCCC(=O)OC1C(O)C(CO)OC(OC)C1NC(=O)N(CCCl)N=O` (centres undefined) yielded a TGI [1] greater than 100 µM, a TGI [2] greater than 100 µM and a TGI [3] greater than 100 µM. It also gave a TGI [5] greater than 100 µM, a TGI [6] greater than 100 µM and a TGI [57] greater than 100 µM. It also gave a TGI [7] greater than 100 µM, a TGI [8] greater than 100 µM and a TGI [9] greater than 100 µM. For the same compound, the TGI [10] was greater than 100 µM, the TGI [11] was greater than 100 µM and the TGI [12] was greater than 100 µM. The TGI [14] was 63.5 µM, the TGI [15] was greater than 100 µM and the TGI [16] was greater than 100 µM. The TGI [17] was greater than 100 µM, the TGI [18] was greater than 100 µM and the TGI [19] was greater than 100 µM. It also gave a TGI [21] greater than 100 µM, a TGI [22] greater than 100 µM and a TGI [58] of 93.4 µM. For the same compound, the TGI [24] was greater than 100 µM, the TGI [25] was greater than 100 µM and the TGI [27] was greater than 100 µM. The TGI [28] was greater than 100 µM, the TGI [29] was greater than 100 µM and the TGI [30] was greater than 100 µM. It also gave a TGI [31] greater than 100 µM, a TGI [32] greater than 100 µM and a TGI [33] greater than 100 µM. For the same compound, the TGI [34] was greater than 100 µM, the TGI [35] was greater than 100 µM and the TGI [36] was greater than 100 µM. It also gave a TGI [37] greater than 100 µM, a TGI [38] greater than 100 µM and a TGI [39] of 59.8 µM. It also gave a TGI [40] greater than 100 µM, a TGI [41] greater than 100 µM and a TGI [42] greater than 100 µM. The TGI [44] was greater than 100 µM, the TGI [45] was 89.9 µM and the TGI [48] was greater than 100 µM. The TGI [49] was greater than 100 µM, the TGI [50] was 86.8 µM and the TGI [52] was greater than 100 µM. The TGI [53] was greater than 100 µM, the TGI [55] was greater than 100 µM and the TGI [56] was greater than 100 µM.
`O=S1(=O)OCCOS(=O)(=O)C1(Br)Cc1ccccc1` was tested, and the TGI [1] was greater than 100 µM, the TGI [2] was greater than 100 µM and the TGI [3] was greater than 100 µM. It also gave a TGI [4] greater than 100 µM, a TGI [5] greater than 100 µM and a TGI [6] greater than 100 µM. The TGI [7] was greater than 100 µM, the TGI [8] was greater than 100 µM and the TGI [9] was greater than 100 µM. It also gave a TGI [11] greater than 100 µM, a TGI [12] greater than 100 µM and a TGI [13] greater than 100 µM. It also gave a TGI [14] greater than 100 µM, a TGI [15] greater than 100 µM and a TGI [16] greater than 100 µM. For the same compound, the TGI [17] was greater than 100 µM, the TGI [18] was greater than 100 µM and the TGI [19] was greater than 100 µM. For the same compound, the TGI [20] was greater than 100 µM, the TGI [21] was greater than 100 µM and the TGI [22] was greater than 100 µM. The TGI [58] was greater than 100 µM, the TGI [23] was greater than 100 µM and the TGI [24] was greater than 100 µM. For the same compound, the TGI [25] was greater than 100 µM, the TGI [26] was greater than 100 µM and the TGI [27] was greater than 100 µM. It also gave a TGI [28] greater than 100 µM, a TGI [29] greater than 100 µM and a TGI [30] greater than 100 µM. It also gave a TGI [31] greater than 100 µM, a TGI [32] greater than 100 µM and a TGI [33] greater than 100 µM. For the same compound, the TGI [34] was greater than 100 µM, the TGI [35] was greater than 100 µM and the TGI [36] was greater than 100 µM. For the same compound, the TGI [37] was greater than 100 µM, the TGI [38] was greater than 100 µM and the TGI [39] was greater than 100 µM. It also gave a TGI [40] greater than 100 µM, a TGI [41] greater than 100 µM and a TGI [43] greater than 100 µM. For the same compound, the TGI [44] was greater than 100 µM, the TGI [45] was greater than 100 µM and the TGI [46] was greater than 100 µM. The TGI [47] was greater than 100 µM, the TGI [48] was greater than 100 µM and the TGI [49] was greater than 100 µM. It also gave a TGI [50] greater than 100 µM, a TGI [51] greater than 100 µM and a TGI [52] greater than 100 µM. For the same compound, the TGI [53] was greater than 100 µM, the TGI [54] was greater than 100 µM and the TGI [55] was greater than 100 µM. The TGI [56] was greater than 100 µM.
